Test results: patent US6476074B1, “Method and composition for treatment of erectile dysfunction” (Synphora AB, priority 1997, dated 2002)

Tests used:
[1] = system: anaesthetized rats; assay: Reduction of blood pressure in anaesthetized rats on intravenous infusion; assay type: in vivo, rat; details: n=3, Mean ± SEM
Text: The vasodilatory effect of the prostaglandin analogues was also studied in the rat by registering the blood pressure reducing effect. This is a relevant […] model for showing general vasodilatory effect of importance for inducing erection since vasodilation in penis is needed for achieving erection. Rats were anaesthetized with a mixture of ketarnine and xylazin and the prostaglandin analogues were infused intravenously. The blood pressure was continuously registered in a femoral artery. Each analogue was infused in 3 escalating doses in the same animal. […] In all experiments the blood pressure reduction was transient and the blood pressure increased immediately after termination of the infusion. The analogues were used both as esters and acids for the experiments.

[2] = system: cat eyes; assay: Irritant effect in cat eyes (behavioural model, eyelid closure); assay type: in vivo; details: for Maximum irritative effect: scale 0-3, Mean ± SEM (n = 3-6); for irritant effect (in words): cat eye, topical single dose
Description: The irritant effect of the prostaglandin analogues was tested using a behavioural model in cats. In this model the irritant effect on the eye is studied by registering the degree of eyelid closure and the behaviour of the animals. Compounds that cause discomfort and pain in the eye cause the animals to close their eyes. The analogues were applied as carboxylic acid esters, to enhance bioavailability, topically on the eye as a single dose at different dose levels. The animals were then followed for several hours at regular intervals. Each compound and dose was tested on a group of 3-6 cats. At least 3 days elapsed between two consecutive tests on the same animals. An arbitrary scale from 0 (absence of irritation) to 3 (marked irritation), with half steps was used.

[3] = system: human corpus cavernosum tissue; assay: Relaxation of isolated human corpus cavernosum tissue precontracted with norepinephrine; assay type: cell-based; details: for Reduction in tension (%): precontracted with 10^−6 M norepinephrine, compared to carbachol (10^−6 M), Mean ± SEM; for Reduction in tension (%) / EC50: n=8; for EC50: relaxation of tissue precontracted with 10^−6 M norepinephrine
Description: Human penile cavernous tissue was obtained fresh from surgery, and representative tissue samples were mounted in smooth muscle tissue baths containing a modified Kreb's solution consisting of NaCl 119 mM, KCl 4.6 mM, MgCl2 1.2 mM, NaH2PO4 1.2 mM, NaHCO3 15 mM, CaCl2 1.5 mM and glucose 11 mM. The solution also contained indomethacin at a final concentration of about 3 μM. The solution was continuously bubbled by 95% O2 and 5% CO2, and the temperature was kept at 37° C.
The tissue preparations were stretched by a force corresponding to 500 mg, and were given a contractile tone by the addition of norepinephrine at a concentration of 10^−6 M. Concentration-response curves were then constructed by adding cumulatively increasing concentrations of the prostaglandin analogues to the bath in a routine way. The relaxant effect was normalized by comparing to that of carbachol in the same preparation.

[4] = system: rabbit penile blood vessels; assay: Vasodilatory effect on isolated rabbit penile blood vessels precontracted with norepinephrine (myograph); assay type: cell-based; details: FIG. 2; precontracted with 10^−6 M norepinephrine; normalized to papaverine
Description: The solution also contained indomethacin at a final concentration of about 3 μM, and was continuously bubbled by 95% O2 and 5%CO2. The temperature was kept constant at 37° C. The vessels were stretched and then precontracted using 10^-6 M norepinephrine, and the vasorelaxant effect of the prostaglandin analogues was normalized by comparing it to that of papaverine in the same preparation. Cumulative concentration-response curves were constructed for the analogues.

[5] = system: cat eyes; assay: Irritant effect in cat eyes (behavioural model, eyelid closure); assay type: in vivo; details: cat eye
[6] = system: rabbits; details: Hall and Jaitly, 1977; cited from earlier work
[7] = system: cat eyes; assay: Intraocular pressure in cats by pneumatonometry after topical administration; assay type: in vivo; details: 3 cats, local anaesthesia; before treatment 16.3+/−0.9 mmHg; vehicle eye 16.3 and 15.7 mmHg
Description: To confirm that 19R-OH-PGE2-methyl ester, which is more hydrophilic than PGE1-isopropyl ester, indeed penetrates into the cornea and the intraocular parts of the eye we measured the intraocular pressure in 3 cats under local anaesthesia before and 1 hour after topical administration of the prostaglandin to the eye. The intraocular pressure was measured by pneumatonometry. One eye was treated with the test compound and the other eye received the vehicle only. In the eyes treated topically with 19R-OH-PGE2-methyl ester the intraocular pressure decreased from 16.3+/−0.9 mmHg to 12.7+/−1.2 mmHg, whereas it was 16.3+/−0.9 mmHg and 15.7+/−0.7 mmHg in the control eyes at the same time points. It is well known that prostaglandins reduce the intraocular pressure in cats (Bito et al., 1989), and it can thus be taken as an evidence that the drug has penetrated into the eye. […] Thus the absence of pain and irritation after administration of 18RS-OH-PGE2, 19R-OH-PGE2 and 20OH-PGE2 cannot be explained on the basis of increased hydrophilicity and poor bioavailability.

[8] = log P estimated by thin layer chromatography; assay type: physicochemical; details: estimated from thin layer chromatography with PGF2α isopropyl ester as reference
[9] = reference value used for the TLC estimate; cited from earlier work
[10] = 7.5-10 μg/kg intravenous infusion
[11] = 25-35 μg/kg intravenous infusion

Compound | Reduction (%) of blood pressure [1, 10] | Reduction (%) of blood pressure [1, 11] | Maximum irritative effect ([2]; Dose 1 μg topically on eye) | Maximum irritative effect ([2]; Dose 10 μg topically on eye) | Reduction in tension (%) [3] | Maximum irritative effect ([2]; Dose 0.1 μg topically on eye) | other results
18RS-OH-PGE2 | 15 ± 3% | 32 ± 2% | – | – | – | – | –
CCC(O)CC[C@H](O)/C=C/[C@H]1[C@H](O)CC(=O)[C@@H]1C/C=C\CCCC(=O)OC (stereo partly shown) [18RS-OH-PGE2-me, 18RS-Hydroxy PGE2 Methyl Ester] | – | – | 0.0 ± 0.0 | 0.0 ± 0.0 | – | – | Maximum irritative effect ([2]; Dose 3 μg topically on eye): 0.0 ± 0.0; Maximum irritative effect ([2]; Dose 30 μg topically on eye): 0.3 ± 0.2; irritant effect (in words) [2]: no or markedly reduced irritant effect, even at doses 1000 times higher than PGE1-isopropyl ester
C[C@@H](O)CCC[C@H](O)/C=C/[C@H]1[C@H](O)CC(=O)[C@@H]1C/C=C\CCCC(=O)O [19R-OH-PGE2, 19R-hydroxy-prostaglandin E2] | 31 ± 3% | 43 ± 6% | – | – | 96.9 ± 3.1% | – | factor by which concentration-response curves of PGE1 and 19R-OH-PGE2 differ ([3]; FIG. 1, 19R-OH-PGE2 about half to one third as potent as PGE1): 2-3; EC50 [3]: 690 nM; vasodilatory effect (in words) [4]: the same efficacy in inducing vasodilatation and were also about equipotent; irritation by swelling of the ocular structures (in words) [5]: no evidence of such irritation; lid closure and irritant effect in rabbit eye (in words) [6]: does not cause lid closure in rabbits but induces an irritant effect by inducing swelling of the ocular structures
COC(=O)CCC/C=C\C[C@H]1C(=O)C[C@@H](O)[C@@H]1/C=C/[C@@H](O)CCC[C@@H](C)O [19R-OH-PGE2-me, 19-R-Hydroxy-prostaglandin E2-Methyl Ester] | – | – | 0.1 ± 0.1 | 0.1 ± 0.1 | – | 0.0 ± 0.0 | Maximum irritative effect ([2]; Dose 100 μg topically on eye): 0.7 ± 0.4; irritant effect (in words) [2]: no or markedly reduced irritant effect, even at doses 1000 times higher than PGE1-isopropyl ester; intraocular pressure 1 hour after topical administration [7]: 12.7+/−1.2 mmHg
O=C(O)CCC/C=C\C[C@H]1C(=O)C[C@@H](O)[C@@H]1/C=C/[C@@H](O)CCCCCO [20-OH-PGE2, 20-hydroxy PGE2] | 38 ± 3% | 44 ± 0% | – | – | – | – | –
COC(=O)CCC/C=C\C[C@H]1C(=O)C[C@@H](O)[C@@H]1/C=C/[C@@H](O)CCCCCO [20-OH-PGE2-me, 20-OH-Prostaglandin E2-Methyl Ester] | – | – | – | 1.2 ± 0.2 | – | – | Maximum irritative effect ([2]; Dose 3 μg topically on eye): 0.5 ± 0.0; Maximum irritative effect ([2]; Dose 30 μg topically on eye): 1.2 ± 04
C[N+](C)(C)CCOC(N)=O [Carbachol, reference compound] | – | – | – | – | 100.0 ± 0.0% | – | –
CCCCC[C@H](O)/C=C/[C@H]1[C@H](O)CC(=O)[C@@H]1CCCCCCC(=O)O [PGE1, prostaglandin E1, reference compound] | 35 ± 5% | 52 ± 3% | 1.6 ± 0.2 | 3.0 ± 0.0 | 90.9 ± 3.7% | 0.6 ± 0.1 | EC50 ([3]; Homo sapiens): 250 nM; vasodilatory effect (in words) [4]: the same efficacy in inducing vasodilatation and were also about equipotent; chromatographic logP [8]: 0.7
CCCCC[C@H](O)/C=C/[C@H]1[C@H](O)CC(=O)[C@@H]1CCCCCCC(=O)OC(C)C [PGE1-ie, PGE1-isopropyl ester, reference compound] | – | – | – | – | – | 1.7 ± 0.3 | Maximum irritative effect ([2]; Dose 0.01 μg topically on eye): 0.4 ± 0.2; Maximum irritative effect ([2]; Dose 0.3 μg topically on eye): 2.8 ± 0.1
CCCCC[C@H](O)/C=C/[C@@H]1[C@@H](C/C=C\CCCC(=O)OC(C)C)[C@@H](O)C[C@H]1O [PGF2α isopropyl ester] | – | – | – | – | – | – | log P of reference [9]: (log P 4.5). ie = isopropyl ester, me = methyl ester.
